Measurements reported in patent US4113946A, “Δ^2,3 -1,4-Morpholine-2-carboxylic acid derivatives as antibacterial agents” (Bristol-Myers Company, priority 1977, dated 1978).
Values after ≈ are worked out from the molar mass of the structure shown. Where a name gives a salt, the structure may show the parent alone. Read-outs that look alike come from different tables or passages of the source.

Assays:
D. pneumoniae A9585 = experiment: M.I.C. by tube dilution, D. pneumoniae A9585; type: cell-based; conditions: Streptococcus pneumoniae, A9585
Str. pyogenes A9604 = experiment: M.I.C. by tube dilution, Str. pyogenes A9604; type: cell-based; conditions: Streptococcus pyogenes, +5% serum, 50% Nutrient Broth - 45% Antibiotic Assay Broth, overnight 37° C., read-out: M.I.C.
S. aureus Smith A9537 = experiment: M.I.C. by tube dilution, S. aureus Smith A9537; type: cell-based; conditions: Staphylococcus aureus
S. aureus BX1633-2 A9606 = experiment: M.I.C. by tube dilution, S. aureus BX1633-2 A9606; type: cell-based; conditions: Staphylococcus aureus, overnight 37° C.
Sal. enteritidis A9531 = experiment: M.I.C. by tube dilution, Sal. enteritidis A9531; type: cell-based; conditions: Salmonella enterica, ENTERITIDIS
E. coli Juhl A15119 = experiment: M.I.C. by tube dilution, E. coli Juhl A15119; type: cell-based; conditions: Escherichia coli, JUHLA15119
E. coli A9675 = experiment: M.I.C. by tube dilution, E. coli A9675; type: cell-based; conditions: Escherichia coli
K. pneumoniae A9977 = experiment: M.I.C. by tube dilution, K. pneumoniae A9977; type: cell-based; conditions: Klebsiella pneumoniae
K. pneumoniae A15130 = experiment: M.I.C. by tube dilution, K. pneumoniae A15130; type: cell-based; conditions: Klebsiella pneumoniae
Pr. mirabilis A9900 = experiment: M.I.C. by tube dilution, Pr. mirabilis A9900; type: cell-based; conditions: Proteus mirabilis
Pr. morganii A15153 = experiment: M.I.C. by tube dilution, Pr. morganii A15153; type: cell-based; conditions: Morganella morganii
Ps. aeruginosa A9843A = experiment: microbe, parasite or virus in culture; type: cell-based; conditions: Pseudomonas aeruginosa
Ser. marcescens A20019 = experiment: M.I.C. by tube dilution, Ser. marcescens A20019; type: cell-based; conditions: Serratia marcescens
Ent. cloacae A9656 = experiment: M.I.C. by tube dilution, Ent. cloacae A9656; type: cell-based; conditions: Enterobacter cloacae
Ent. cloacae A9657 = experiment: M.I.C. by tube dilution, Ent. cloacae A9657; type: cell-based; conditions: Enterobacter cloacae
Ent. cloacae A9659 = experiment: M.I.C. by tube dilution, Ent. cloacae A9659; type: cell-based; conditions: Enterobacter cloacae, A9659, overnight 37° C.
[1] = test system: S. aureus meth.-resist; A15097; experiment: M.I.C. by tube dilution, S. aureus meth.-resist A15097; type: cell-based; conditions: Staphylococcus aureus, at 10^-3 dil'n, overnight 37° C.
in vivo = conditions: mouse, po, 100 mg/kg
St. pyrogenes = experiment: Inhibition of St. pyrogenes; type: cell-based; conditions: read-out: found to inhibit St. pyrogenes at a concentration of
[2] = +5% serum, 50% Nutrient Broth - 45% Antibiotic Assay Broth, overnight 37° C., read-out: M.I.C.
[3] = SMITHA9537, +50% serum, at 10^-4 dilution, overnight 37° C.
[4] = SMITHA9537, at 10^-4 dilution, overnight 37° C., read-out: M.I.C.
[5] = at 10^-4 dilution, overnight 37° C., read-out: M.I.C.
[6] = overnight 37° C., read-out: M.I.C.
[7] = A9657, overnight 37° C., read-out: M.I.C.
[8] = SMITHA9537, at 10^-4 dilution, overnight 37° C.

| Compound | MIC (D. pneumoniae A9585; [2]) [µg/mL] | MIC (Str. pyogenes A9604) [µg/mL] | MIC (S. aureus Smith A9537; [3]) [µg/mL] | MIC (S. aureus Smith A9537; [4]) [µg/mL] | MIC (S. aureus BX1633-2 A9606; BX16332A9606, at 10^-2 dil'n) [µg/mL] | MIC (S. aureus BX1633-2 A9606; BX16332A9606, at 10^-3 dil'n) [µg/mL] | MIC (Sal. enteritidis A9531) [µg/mL] | MIC (E. coli Juhl A15119) [µg/mL] | MIC (E. coli A9675) [µg/mL] | MIC (K. pneumoniae A15130) [µg/mL] | MIC (Pr. mirabilis A9900) [µg/mL] | MIC (Pr. morganii A15153) [µg/mL] | MIC (Ps. aeruginosa A9843A) [µg/mL] | MIC (Ser. marcescens A20019) [µg/mL] | MIC (Ent. cloacae A9656) [µg/mL] | MIC (Ent. cloacae A9657; A9657) [µg/mL] | MIC (Ent. cloacae A9659) [µg/mL] | MIC [1] [µg/mL] | MIC (E. coli Juhl A15119; [5]) [µg/mL] | MIC (K. pneumoniae A9977) [µg/mL] | other results |
| --- | --- | --- | --- | --- | --- | --- | --- | --- | --- | --- | --- | --- | --- | --- | --- | --- | --- | --- | --- | --- | --- |
| COC(=O)CC1=C(C(=O)O)N2C(=O)[C@@H](NC(=O)COc3ccccc3)[C@H]2CO1 (relative stereo) [BC-L33, 7β-Phenoxyacetamido-3-carbomethoxymethylene-Δ^3 -O-2-isocephem-4-carboxylic acid] | 0.06 (≈ 0.154 µM) | 0.06 (≈ 0.154 µM) | 1 (≈ 2.56 µM) | 0.25 (≈ 0.64 µM) | > 125 | 16 (≈ 41 µM) | 8 (≈ 20.5 µM) | 125 (≈ 320 µM) | > 125 | > 125 | 32 (≈ 82 µM) | > 125 | > 125 | > 125 | > 125 | > 125 | > 125 | > 125 |  |  | MIC (K. pneumoniae A9977; [5]): 63 µg/mL (≈ 161 µM) |
| O=C(COc1ccccc1)NC1C(=O)N2C(C(=O)O)=C(CCc3ccccc3)OCC12 (stereo not drawn) [BC-L54, 7β-phenoxyacetamido-3-phenethyl-Δ^3 -O-2-isocephem-4-carboxylic acid] | 0.03 (≈ 0.071 µM) | 0.03 (≈ 0.071 µM) |  | 0.06 (≈ 0.142 µM) | > 125 | 8 (≈ 18.9 µM) | > 125 |  | > 125 | > 125 | > 125 | > 125 | > 125 | > 125 | > 125 | > 125 | > 125 | 125 (≈ 296 µM) | 0.5 (≈ 1.18 µM) | > 125 | MIC (S. aureus Smith A9537; SMITHA9537, +50% serum, at 10^-4 dilution, overnight 37° C., read-out: M.I.C.): 4 µg/mL (≈ 9.47 µM) |
| CC1=C(C(=O)O)N2C(=O)[C@@H](NC(=O)COc3ccccc3)[C@H]2CO1 (relative stereo) [BC-L8, 7β-phenoxyacetamido-3-methyl-O-2-isocephem-4-carboxylic acid] | 0.5 (≈ 1.5 µM) | 0.5 (≈ 1.5 µM) | 2 (≈ 6.02 µM) | 0.5 (≈ 1.5 µM) | 32 (≈ 96.3 µM) | 2 (≈ 6.02 µM) | 8 (≈ 24.1 µM) |  |  |  | 16 (≈ 48.1 µM) |  | 500 (≈ 1500 µM) |  |  |  |  | 32 (≈ 96.3 µM) | 63 (≈ 190 µM) | 32 (≈ 96.3 µM) | MIC (E. coli A9675; [5]): 250 µg/mL (≈ 752 µM); MIC (K. pneumoniae A15130; [5]): 500 µg/mL (≈ 1500 µM); MIC (Pr. morganii A15153; [5]): 500 µg/mL (≈ 1500 µM); MIC (Ser. marcescens A20019; [5]): 500 µg/mL (≈ 1500 µM); MIC (Ent. cloacae A9656; [6]): 500 µg/mL (≈ 1500 µM); MIC (Ent. cloacae A9657; [7]): 63 µg/mL (≈ 190 µM); MIC (Ent. cloacae A9659; read-out: M.I.C.): 500 µg/mL (≈ 1500 µM) |
| CC1=C(C(=O)O)N2C(=O)[C@@H](NC(=O)[C@H](N)c3ccccc3)[C@H]2CO1 [BC-L9, 7β-(D-α-aminophenylacetamido)-3-methyl-Δ^3 -O-2-isocephem-4-carboxylic acid hydrochloride] | 0.5 | 0.5 | 16 |  | 32 | 8 | 16 | 32 |  |  |  |  | > 500 |  |  | 32 | 125 | 32 |  | 16 | MIC (S. aureus Smith A9537; [8]): 2 µg/mL; MIC (E. coli A9675; [5]): 63 µg/mL; MIC (K. pneumoniae A15130; [5]): 63 µg/mL; MIC (Pr. mirabilis A9900; [5]): 63 µg/mL; MIC (Pr. morganii A15153; [5]): 250 µg/mL; MIC (Ser. marcescens A20019; [5]): 500 µg/mL; MIC (Ent. cloacae A9656; [6]): 500 µg/mL |
| CC1=C(C(=O)O)N2C(=O)[C@@H](NC(=O)C(N)c3ccccc3)[C@H]2CO1 (stereo partly drawn) [BC-L45, 7β-(α-amino-α-phenylacetamido)-3-methyl-Δ^3 -O-2-isocephem-4-carboxylic acid] | < 0.25 | < 0.25 | 8 (≈ 24.1 µM) |  |  | 8 (≈ 24.1 µM) |  |  | 32 (≈ 96.6 µM) | 8 (≈ 24.1 µM) | 8 (≈ 24.1 µM) |  | > 125 | > 125 | 125 (≈ 377 µM) |  | 125 (≈ 377 µM) |  | 4 (≈ 12.1 µM) |  | MIC (S. aureus Smith A9537; [8]): 1 µg/mL (≈ 3.02 µM); MIC (S. aureus BX1633-2 A9606; BX16332A9606, at 10^-2 dil'n, read-out: M.I.C.): 63 µg/mL (≈ 190 µM); MIC (Sal. enteritidis A9531; [5]): 4 µg/mL (≈ 12.1 µM); MIC (K. pneumoniae A9977; [5]): 4 µg/mL (≈ 12.1 µM); MIC (Pr. morganii A15153; [5]): 63 µg/mL (≈ 190 µM); MIC (Ent. cloacae A9657; [7]): 4 µg/mL (≈ 12.1 µM); MIC ([1]; read-out: M.I.C.): 63 µg/mL (≈ 190 µM); concentration at 0.5 h (in vivo): 19400 ng/mL; concentration at 1 h (in vivo): 15700 ng/mL; concentration at 2 h (in vivo): 7300 ng/mL; concentration at 3.5 h (in vivo): 2900 ng/mL |
| CC1=C(C(=O)O)N2C(=O)[C@@H](N)[C@H]2CO1 (relative stereo) [BC-L61, 7β-Amino-3-methyl-Δ^3 -O-2-isocephem-4-carboxylic acid] |  |  |  |  |  |  |  |  |  |  |  |  |  |  |  |  |  |  |  |  | MIC (D. pneumoniae A9585; read-out: found to inhibit D. pneumoniae A9585 at a concentration of): > 8 µg/mL; MIC (S. aureus Smith A9537; SMITHA9537, read-out: found to inhibit S. aureus A9537 at a concentration of): > 125 µg/mL; MIC (E. coli Juhl A15119; read-out: found to inhibit E. coli A15119 at a concentration of): > 125 µg/mL; MIC (St. pyrogenes): > 8 µg/mL |
| O=C(COc1ccccc1)NC1C(=O)N2C(C(=O)O)=C(Cc3ccccc3)OCC12 (stereo not drawn) [BC-L17, 7β-phenoxyacetamido-3-benzyl-Δ^3 -O-2-isocephem-4-carboxylic acid] | 0.25 (≈ 0.612 µM) | 0.25 (≈ 0.612 µM) | 1 (≈ 2.45 µM) | 0.25 (≈ 0.612 µM) | > 125 | 8 (≈ 19.6 µM) | 32 (≈ 78.4 µM) | > 125 | > 125 | > 125 | > 125 | > 125 | > 125 | > 125 | > 125 | > 125 | > 125 | 125 (≈ 306 µM) |  | > 125 |  |
